Experimental data taken from PubChem BioAssay (NCI).
Values joined by “and” are separate entries in the source; they are usually repeats but may differ in a detail not shown here. Equal entries are not always repeated.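 The compound was tested at five concentrations on cells cultured in 96-well plates, with a 48-hour exposure period. Here, GI50 denotes the concentration required for 50% inhibition of growth. At the TGI there is no net growth.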

Columns and labels:
Test in all cases: inhibition of tumour cell growth, NCI panel, 48 h
A498 renal = test system: A498 renal
CAKI-1 renal = test system: CAKI-1 renal
CCRF-CEM leukemia = test system: CCRF-CEM leukemia
OVCAR-4 ovarian = test system: OVCAR-4 ovarian
RPMI-8226 leukemia = test system: RPMI-8226 leukemia
TK-10 renal = test system: TK-10 renal
LOX IMVI melanoma = test system: LOX IMVI melanoma
HT29 colon = test system: HT29 colon
SK-MEL-2 melanoma = test system: SK-MEL-2 melanoma
MDA-MB-435 = test system: MDA-MB-435

Row | SMILES | TGI (A498 renal) | GI50 (CAKI-1 renal) | TGI (CAKI-1 renal) | GI50 (CCRF-CEM leukemia) | TGI (CCRF-CEM leukemia) | GI50 (OVCAR-4 ovarian) | TGI (OVCAR-4 ovarian) | GI50 (RPMI-8226 leukemia) | TGI (RPMI-8226 leukemia) | GI50 (TK-10 renal) | TGI (TK-10 renal) | GI50 (LOX IMVI melanoma) | TGI (LOX IMVI melanoma) | GI50 (HT29 colon) | TGI (HT29 colon) | GI50 (SK-MEL-2 melanoma) | TGI (SK-MEL-2 melanoma) | GI50 (MDA-MB-435) | TGI (MDA-MB-435) | GI50 (A498 renal)
1 | COc1cc2ccc3c4c(OC)cc(OC)c(OC)c4c(=O)n(C)c3c2cc1OC | 16.7 µM | 6.83 µM | 16.7 µM and > 44.2 µM | 0.486 µM | 2.04 µM | 2.67 µM | 8.32 µM and > 45.8 µM | 0.245 µM | 2.15 µM and 1.65 µM | > 16.7 µM | > 54.6 µM | 1.53 µM | 3.8 µM | 1.75 µM | 4.77 µM | 3.29 µM | 16.7 µM and > 47.6 µM | – | – | –
2 | COC(=O)C(C(=O)C(=O)Nc1ccccc1C(C)=O)c1nc2ccc(Cl)cc2[nH]c1=O (stereo not given) | > 100 µM | – | > 100 µM | – | > 100 µM | – | > 100 µM | – | > 100 µM | – | > 100 µM | – | > 100 µM | – | > 100 µM | – | > 100 µM | – | – | –
3 | CCC1=C(C)/C(=C/c2[nH]c(CBr)c(CC)c2C)N=C1CBr | – | – | 25.8 µM | – | 9.55 µM | – | > 100 µM | – | 36.7 µM | – | 37.6 µM | – | > 100 µM | – | 26.7 µM | – | 48.5 µM | – | – | –
4 | Cc1c(C(=O)CC(=O)C(=O)Nc2ccc(Cl)c(Cl)c2)[n+](=O)c2ccccc2n1[O-] | > 100 µM | – | > 100 µM | – | 43 µM | – | 34.7 µM | – | 45.7 µM | – | > 100 µM | – | 53.2 µM | – | 74.5 µM | – | 57 µM | – | – | –
5 | ClC1CCC2OOC1O2 (stereo not given) | > 100 µM | – | > 100 µM | – | > 100 µM | – | > 100 µM | – | > 100 µM | – | > 100 µM | – | > 100 µM | – | > 100 µM | – | > 100 µM | – | – | –
6 | O=C(O)c1ccc2c(c1Nc1ccccc1)C(=O)c1ccccc1C2=O | – | 16 µM | 47.1 µM | 40.5 µM | > 100 µM | 86.1 µM | > 100 µM | – | – | 98.5 µM | > 100 µM | 28.9 µM | > 100 µM | 98.4 µM | > 100 µM | 51.7 µM | > 100 µM | 48.1 µM | > 100 µM | –
7 | Nc1ncnc2c1nc(-c1ccccc1)n2C1OC(CO)C(O)C1O (stereo not given) | > 100 µM | – | > 100 µM | – | – | – | > 100 µM | – | > 100 µM | – | > 100 µM | – | > 100 µM | – | > 100 µM | – | > 100 µM | – | > 100 µM | –
8 | COc1ccc(NC(=O)C(=O)C2CNC(=O)NC2=O)c(OC)c1 (stereo not given) | – | – | > 100 µM | – | > 100 µM | – | > 100 µM | – | > 100 µM | – | > 100 µM | – | > 100 µM | – | > 100 µM | – | > 100 µM | – | – | –
9 | COC(=O)C1=CN=C(C(=O)OC)NN1 | – | – | > 100 µM | – | > 100 µM | – | > 100 µM | – | > 100 µM | – | > 100 µM | – | – | – | > 100 µM | – | > 100 µM | – | – | –
10 | CC(=O)OCc1cc(OC(C)=O)cnc1COC(C)=O | > 100 µM | – | > 100 µM | – | > 100 µM | – | > 100 µM | – | – | – | > 100 µM | – | > 100 µM | – | > 100 µM | – | > 100 µM | – | – | –
11 | COc1ccc(C(c2ccc(C(C)C)cc(=O)c2O)c2ccc3cccnc3c2O)cc1 (stereo not given) | – | – | 5.15 µM | – | > 100 µM | – | 23.9 µM | – | 23.6 µM | – | – | – | > 100 µM | – | 20.2 µM | – | 30.1 µM | – | – | –
12 | C[C@@H](CO)OCOCc1ccccc1 | > 100 µM | – | > 100 µM | – | > 100 µM | – | > 100 µM | – | > 100 µM | – | – | – | > 100 µM | – | > 100 µM | – | > 100 µM | – | – | –
13 | N.N.N.N.N.N.[I-].[Os] | > 100 µM | > 100 µM | > 100 µM | > 100 µM | > 100 µM | > 100 µM | > 100 µM | > 100 µM | > 100 µM | > 100 µM | > 100 µM | > 100 µM | > 100 µM | > 100 µM | > 100 µM | > 100 µM | > 100 µM | – | – | > 100 µM
14 | Cc1ccc([N+](=O)[O-])cc1NC(=O)C(=O)Cc1occc(=O)c1O | > 100 µM | – | > 100 µM | – | > 100 µM | – | – | – | > 100 µM | – | > 100 µM | – | > 100 µM | – | > 100 µM | – | – | – | – | –
15 | Cc1ccc(S(=O)(=O)/N=c2\ssc(Nc3ccccc3)c2Cl)cc1 | – | 7.6 µM | 21.1 µM | – | – | 33.6 µM | > 50 µM | 7.77 µM | 26.8 µM | 8.21 µM | 22.8 µM | 10.2 µM | 20.9 µM | 17.2 µM | > 50 µM | 18.3 µM | > 50 µM | 8.41 µM | 22.1 µM | –
16 | CC1(C)OC(C(N)=O)=C(C(N)=O)O1 | > 100 µM | – | > 100 µM | – | > 100 µM | – | > 100 µM | – | – | – | > 100 µM | – | > 100 µM | – | > 100 µM | – | > 100 µM | – | – | –
17 | O=C(/C=C\c1cccc2ccccc12)c1cccs1 | 35.6 µM | – | 22.7 µM | – | 7.83 µM | – | 32.9 µM | – | 7.68 µM | – | 33.2 µM | – | – | – | 17.4 µM | – | – | – | – | –
18 | CN1CCC[C@@H]1CCO[C@](C)(c1ccccc1)c1ccc(Cl)cc1 | 23 µM | 7.12 µM | 21.5 µM | – | – | 8.46 µM | 22 µM | – | – | 10.7 µM | 23.3 µM | 3.02 µM | 14.2 µM | 3.06 µM | 11.3 µM | 5 µM | 16.2 µM | 2.46 µM | 8.19 µM | 10.7 µM
19 | CN(C)C(=O)/N=c1\ss/c(=N\C(=S)N(C)C)n1-c1ccccc1 | > 100 µM | 2.76 µM | > 100 µM | – | > 48.8 µM | – | 60.2 µM | 0.291 µM | > 100 µM | – | 84.7 µM | – | > 46 µM | – | – | – | > 100 µM | – | – | –
20 | O=C(O)c1ccc(O)c(N=Nc2cc(S(=O)(=O)O)c3ccccc3c2O)c1 | > 100 µM | – | > 100 µM | – | – | – | > 100 µM | – | > 100 µM | – | > 100 µM | – | > 100 µM | – | > 100 µM | – | > 10 µM | – | – | –
